Laboratory results as given in PubChem BioAssay AID1259408 (Genetic Toxicology Data Bank (GENE-TOX), 2018).
The source made the active and inactive calls. How the calls were made is not given here.

Test system: GENE-TOX genotoxicity assays, various organisms and cells
Experiment: GENE-TOX mutagenicity studies
[1] = Species/Cell Type: Drosophila melanogaster, Assay Type: Aneuploidy, partial sex chromosome loss, chromosome aberrations, Assay Code: DAPT, Evaluation Type: Evaluation A (Pre-1980)
[2] = Species/Cell Type: Salmonella typhimurium (one or more of the five standard strains: TA98, TA100, TA1535, TA1537, and TA1538), Assay Type: Histidine reverse gene mutation, Ames assay, Assay Code: SAL+*, Activation: With metabolic activation, Evaluation Type: Evaluation A (Pre-1980)
[3] = Species/Cell Type: Syrian hamster embryo (SHE) cells, Assay Type: Cell transformation, clonal assay, Assay Code: CTC+, Evaluation Type: Evaluation A (Pre-1980)
[4] = Species/Cell Type: Mammalian polychromatic erythrocytes, Assay Type: Micronucleus test, chromosome aberrations, Assay Code: MNTT, Evaluation Type: Evaluation B (Post-1980)
[5] = Species/Cell Type: Escherichia coli polA (W3119 vs P3478), Assay Type: Rec-assay, DNA effects (bacterial DNA repair), Assay Code: RE1T, Evaluation Type: Evaluation A (Pre-1980)
[6] = Species/Cell Type: Saccharomyces cerevisiae, Assay Type: Mitotic recombination or gene conversion, Assay Code: YEH-, Evaluation Type: Evaluation A (Pre-1980)
[7] = Species/Cell Type: Human, Assay Type: Sister-chromatid exchange (SCE) in vitro, Assay Code: SC1+, Evaluation Type: Evaluation B (Post-1980)
[8] = Species/Cell Type: Nonhuman, Assay Type: Sister-chromatid exchange (SCE) in vitro, Assay Code: SC2T, Evaluation Type: Evaluation B (Post-1980)
[9] = Species/Cell Type: Bacillus subtilis (H17 vs M45), Assay Type: Rec-assay, spot test, DNA effects (bacterial DNA repair), Assay Code: REWT, Evaluation Type: Evaluation A (Pre-1980)
[10] = Species/Cell Type: Nonhuman, Assay Type: Sister-chromatid exchange (SCE) in vitro, Assay Code: SC2+, Evaluation Type: Evaluation B (Post-1980)
[11] = Species/Cell Type: Drosophila melanogaster, Assay Type: Sex-linked recessive lethal gene mutation, Assay Code: SRL-, Evaluation Type: Evaluation A (Pre-1980)
[12] = Species/Cell Type: Human lymphocytes, Assay Type: Sister-chromatid exchange (SCE) in vitro, Assay Code: SCL+D, Dose Response: With dose response, Evaluation Type: Evaluation B (Post-1980)
[13] = Species/Cell Type: Human, Assay Type: Sister-chromatid exchange (SCE) in vitro, Assay Code: SC1+D, Dose Response: With dose response, Evaluation Type: Evaluation B (Post-1980)
[14] = Species/Cell Type: Salmonella typhimurium (one or more of the five standard strains: TA98, TA100, TA1535, TA1537, and TA1538), Assay Type: Histidine reverse gene mutation, Ames assay, Assay Code: SALT, Evaluation Type: Evaluation A (Pre-1980)

Q: How did the mutagenic call [1] turn out when `O=NN1CCCCC1` was run?
A: no conclusion

Q: What about the mutagenic call (Species/Cell Type: Drosophila melanogaster, Assay Type: Aneuploidy, whole sex chromosome loss, chromosome aberrations, Assay Code: DACT, Evaluation Type: Evaluation A (Pre-1980)) of the same compound?
A: no conclusion

Q: What about the mutagenic call (Species/Cell Type: Drosophila melanogaster, Assay Type: Sex-linked recessive lethal gene mutation, Assay Code: SRL+, Evaluation Type: Evaluation A (Pre-1980)) of the same compound?
A: active; positive

Q: And the mutagenic call (Species/Cell Type: Escherichia coli polA (W3119 vs P3478), Assay Type: Rec-assay, DNA effects (bacterial DNA repair), Assay Code: RE1+, Evaluation Type: Evaluation A (Pre-1980))?
A: active; positive

Q: And the call (Species/Cell Type: Nonhuman, Assay Type: In vivo carcinogenicity studies, Assay Code: CCG+, Evaluation Type: Evaluation A (Pre-1980))?
A: active; positive

Q: What about the mutagenic call (Species/Cell Type: Nonhuman, Assay Type: Sister-chromatid exchange (SCE) in vivo, Assay Code: SC3+, Evaluation Type: Evaluation B (Post-1980)) of the same compound?
A: active; positive

Q: What about the mutagenic call (Species/Cell Type: Saccharomyces cerevisiae, Assay Type: Forward gene mutation, Assay Code: YEF+*, Activation: With metabolic activation, Evaluation Type: Evaluation A (Pre-1980)) of the same compound?
A: active; positive

Q: What about the mutagenic call (Species/Cell Type: Saccharomyces cerevisiae, Assay Type: Reverse gene mutation, Assay Code: YER+*, Activation: With metabolic activation, Evaluation Type: Evaluation A (Pre-1980)) of the same compound?
A: active; positive

Q: And the mutagenic call [2]?
A: active; positive

Q: And the mutagenic call [3]?
A: active; positive

Q: For `CCCCCCCCCCCCCCCCCCN(CCO)CCCN(CCO)CCO`, which mutagenic call [4] is on record?
A: no conclusion

Q: With `c1ccc2c(c1)-c1ccccc1C1OC21` (centres undefined) as the compound, how does the mutagenic call (Species/Cell Type: Mouse prostate cells, Assay Type: Cell transformation, Assay Code: CTM-, Evaluation Type: Evaluation A (Pre-1980)) read?
A: inactive; negative

Q: What about the mutagenic call [3] of the same compound?
A: active; positive

Q: Which results are given for `CC1=C[C@H]2[C@@]3(O)[C@H](C)[C@@H](O)[C@]4(O)[C@H]([C@@H]3C=C(CO)C[C@]2(O)C1=O)C4(C)C`?
A: mutagenic call [5]: no conclusion; mutagenic call [6]: inactive; negative

Q: Which results are given for `CC(=O)OC/C=C(C)/C=C/C=C(C)/C=C/C1=C(C)CCCC1(C)C`?
A: mutagenic call [7]: active; positive; mutagenic call [8]: no conclusion

Q: `Nc1ccc2ccc3ccccc3c2n1` was tested. Which mutagenic call [2] did it give?
A: active; positive

Q: For `C[C@]12C=CC(=O)C=C1CC[C@@H]1[C@@H]2CC[C@@]2(C)[C@H]1CC[C@]2(C)O`, which mutagenic call (Species/Cell Type: Human, Sex: Male, Assay Type: Sperm morphology, Assay Code: SPH+, Evaluation Type: Evaluation A (Pre-1980)) is on record?
A: active; positive

Q: For `O[C@@H]([C@H](O)[C@H](O)CBr)[C@H](O)CBr`, which mutagenic call (Species/Cell Type: Nonhuman, Assay Type: Sister-chromatid exchange (SCE) in vivo, Assay Code: SC3+D, Dose Response: With dose response, Evaluation Type: Evaluation B (Post-1980)) is on record?
A: active; positive

Q: Which mutagenic call (Species/Cell Type: Nonhuman, Assay Type: Sister-chromatid exchange (SCE) in vitro, Assay Code: SC2+D, Dose Response: With dose response, Evaluation Type: Evaluation B (Post-1980)) does the source give for `CCN(N=O)C(=O)Nc1ccccc1` here?
A: active; positive

Q: With `O=S(=O)(O)c1ccc(N=Nc2c(O)ccc3ccccc23)c2ccccc12` as the compound, how does the mutagenic call [9] read?
A: no conclusion

Q: With `Cn1c([N+](=O)[O-])cnc1COC(N)=O` as the compound, how does the mutagenic call (Species/Cell Type: Mammalian polychromatic erythrocytes, Assay Type: Micronucleus test, chromosome aberrations, Assay Code: MNTT, Evaluation Type: Evaluation A (Pre-1980)) read?
A: no conclusion

Q: And the mutagenic call (Species/Cell Type: Rodents, Sex: Male, Assay Type: Dominant lethal test, Assay Code: DLT-, Evaluation Type: Evaluation A (Pre-1980))?
A: inactive; negative

Q: What about the mutagenic call (Species/Cell Type: Salmonella typhimurium (one or more of the five standard strains: TA98, TA100, TA1535, TA1537, and TA1538), Assay Type: Histidine reverse gene mutation, Ames assay, Assay Code: SAL+, Evaluation Type: Evaluation A (Pre-1980)) of the same compound?
A: active; positive

Q: `ClCC1(Cl)OC1Cl` (centres undefined) was tested. Which mutagenic call (Species/Cell Type: Neurospora crassa, Assay Type: Forward gene mutation, Assay Code: NEF+, Evaluation Type: Evaluation A (Pre-1980)) did it give?
A: active; positive

Q: And the mutagenic call (Species/Cell Type: Neurospora crassa, Assay Type: Reverse gene mutation, Assay Code: NER+, Evaluation Type: Evaluation A (Pre-1980))?
A: active; positive

Q: Which mutagenic call [10] does the source give for `C=COCC` here?
A: active; positive

Q: With `O=[Si]=O` as the compound, how does the mutagenic call [8] read?
A: no conclusion

Q: For `CCNP(=S)(OC)O/C(C)=C/C(=O)OC(C)C` (centres undefined) (tested in a mixture with another compound), which mutagenic call [4] is on record?
A: no conclusion

Q: With `CCCC(C)(COC(N)=O)COC(N)=O` as the compound, how does the mutagenic call [1] read?
A: no conclusion

Q: And the mutagenic call (Species/Cell Type: Drosophila melanogaster, Assay Type: Aneuploidy, whole sex chromosome loss, chromosome aberrations, Assay Code: DAC-M, Evaluation Type: Evaluation A (Pre-1980))?
A: inactive; negative

Q: And the mutagenic call [11]?
A: inactive; negative

Q: With `Cc1cccc(O)c1C` as the compound, how does the mutagenic call (Species/Cell Type: Human lymphocytes, Assay Type: Sister-chromatid exchange (SCE) in vitro, Assay Code: SCLT, Evaluation Type: Evaluation B (Post-1980)) read?
A: no conclusion

Q: What about the mutagenic call (Species/Cell Type: Human, Assay Type: Sister-chromatid exchange (SCE) in vitro, Assay Code: SC1T, Evaluation Type: Evaluation B (Post-1980)) of the same compound?
A: no conclusion

Q: How did the mutagenic call [12] turn out when `CNC(=O)c1c(I)c(NC(C)=O)c(I)c(C(=O)O)c1I` was run?
A: active; positive

Q: What about the mutagenic call [13] of the same compound?
A: active; positive

Q: With `C[N+](=O)[O-]` as the compound, how does the mutagenic call [4] read?
A: no conclusion

Q: With `COc1ccc2c(ccc3c4c(ccc32)C(C)CC4)c1` (centres undefined) as the compound, how does the mutagenic call [14] read?
A: no conclusion

Q: How did the mutagenic call [14] turn out when `CC1CC2=C(CCC2=O)c2ccc3ccccc3c21` (centres undefined) was run?
A: no conclusion

Q: `NC(=O)c1ccccc1` was tested. Which mutagenic call [7] did it give?
A: active; positive

Q: What about the mutagenic call (Species/Cell Type: Mammalian polychromatic erythrocytes, Assay Type: Micronucleus test, chromosome aberrations, Assay Code: MNT+U, Dose Response: Unconfirmed positive response, Evaluation Type: Evaluation B (Post-1980)) of the same compound?
A: active; positive

Q: What about the mutagenic call [10] of the same compound?
A: active; positive

Q: Which mutagenic call [2] does the source give for `c1ccc2c3c(ccc2c1)Cc1c(ccc2ccccc12)C3` here?
A: active; positive

Q: With `CS(=O)(=O)O` as the compound, how does the mutagenic call (Species/Cell Type: Drosophila melanogaster, Assay Type: Sex-linked recessive lethal gene mutation, Assay Code: SRLT, Evaluation Type: Evaluation A (Pre-1980)) read?
A: no conclusion

Q: And the mutagenic call [5]?
A: no conclusion

Q: For `COc1cc2c3cc1Oc1cc(ccc1O)C[C@@H]1c4c(cc(OC)c(O)c4Oc4ccc(cc4)C[C@@H]3N(C)CC2)CC[N+]1(C)C`, which mutagenic call [5] is on record?
A: no conclusion

Q: And the mutagenic call [14]?
A: no conclusion

Q: How did the mutagenic call [6] turn out when `NC[C@H]1O[C@H](O[C@H]2[C@H](O[C@@H]3O[C@H](CO)[C@@H](O)[C@H]3O)[C@@H](O)[C@H](N)C[C@@H]2N)[C@H](N)[C@@H](O)[C@@H]1O` was run?
A: inactive; negative

Q: What does the source list for `CC1(C)O[C@@H]1COc1c2occc2cc2ccc(=O)oc12`?
A: mutagenic call [12]: active; positive; mutagenic call [13]: active; positive

Q: How did the mutagenic call (Species/Cell Type: Salmonella typhimurium, Assay Type: Forward and reverse gene mutation, host-mediated assay, Assay Code: HMA+, Evaluation Type: Evaluation A (Pre-1980)) turn out when `C1CNCCN1` was run?
A: active; positive

Q: How did the mutagenic call (Species/Cell Type: Bacillus subtilis (H17 vs M45), Assay Type: Rec-assay, spot test, DNA effects (bacterial DNA repair), Assay Code: REW-, Evaluation Type: Evaluation A (Pre-1980)) turn out when `[Cl][Bi]([Cl])[Cl]` was run?
A: inactive; negative

Q: With `CC[C@@H](CO)NC(=O)[C@@H]1C=C2c3cccc4c3c(cn4C)C[C@H]2N(C)C1` as the compound, how does the mutagenic call (Species/Cell Type: Rodents, Sex: Male, Assay Type: Dominant lethal test, Assay Code: DLT+, Evaluation Type: Evaluation A (Pre-1980)) read?
A: active; positive

Q: Which mutagenic call [9] does the source give for `CCOP(=S)(OCC)SCCSCC` here?
A: no conclusion

Q: And the mutagenic call [11]?
A: inactive; negative

Q: And the mutagenic call [5]?
A: no conclusion

Q: What about the mutagenic call (Species/Cell Type: Hordeum vulgare (barley), Assay Type: Chromosome aberrations, Assay Code: HOC+D, Dose Response: With dose response, Evaluation Type: Evaluation A (Pre-1980)) of the same compound?
A: active; positive

Q: And the mutagenic call (Species/Cell Type: Human diploid fibroblasts, Assay Type: Unscheduled DNA synthesis (UDS) in vitro, DNA effects, Assay Code: UDH+/-*, Activation: With metabolic activation, Evaluation Type: Evaluation A (Pre-1980))?
A: inactive; positive without activation, negative with activation

Q: And the mutagenic call [8]?
A: no conclusion

Q: And the mutagenic call [6]?
A: inactive; negative

Q: And the mutagenic call (Species/Cell Type: Salmonella typhimurium (one or more of the five standard strains: TA98, TA100, TA1535, TA1537, and TA1538), Assay Type: Histidine reverse gene mutation, Ames assay, Assay Code: SAL-, Evaluation Type: Evaluation A (Pre-1980))?
A: inactive; negative

Q: `COc1cc(NC(=O)c2ccccc2)c(OC)cc1[N+]#N` was tested. Which mutagenic call [9] did it give?
A: no conclusion

Q: For `O.O.O.O.O.O.[Cl-].[Cl-].[Cl-].[Fe+3]`, which mutagenic call (Species/Cell Type: Nonhuman, Assay Type: Sister-chromatid exchange (SCE) in vitro, Assay Code: SC2-, Evaluation Type: Evaluation B (Post-1980)) is on record?
A: inactive; negative
